Legend:
HCC-2998 = assay: NCI-60 one-dose screen, HCC-2998; assay type: cell-based; settings: Homo sapiens; HCC-2998, colon cancer; single dose 10 μM; read-out: Growth inhibition %
Experimental: (§1) Anti-proliferative effects of the counterparts 4a–g and 5a–g were screened against 60 human cancer cell lines, following the Developmental Therapeutics Program protocol, National Cancer Institute[35].
(§2) The anti-tumour activity of the fourteen synthesised congeners was investigated at the NCI against a panel of 60 cancer cell lines (NCI-60 Cell One-Dose Screen). The tested dibenzo[b,f]azepine derivatives were screened at a single dose level (10 μM), Table 1.

MDA-MB-468 = assay: NCI-60 one-dose screen, MDA-MB-468; assay type: cell-based; settings: Homo sapiens; MDA-MB-468, breast cancer; single dose 10 μM; read-out: Growth inhibition %
Experimental: as §1, §2

OVCAR-4 = assay: NCI-60 one-dose screen, OVCAR-4; assay type: cell-based; settings: Homo sapiens; OVCAR-4, ovarian cancer; single dose 10 μM; read-out: Growth inhibition %
Experimental: as §1, §2

NCI-H522 = assay: NCI-60 one-dose screen, NCI-H522; assay type: cell-based; settings: Homo sapiens; NCI-H522, non-small cell lung cancer; single dose 10 μM; read-out: Growth inhibition %
Experimental: as §1, §2

A549-ATCC = assay: NCI-60 one-dose screen, A549-ATCC; assay type: cell-based; settings: Homo sapiens, non-small cell lung cancer, single dose 10 μM, read-out: Growth inhibition %
Experimental: as §1, §2

K-562 = assay: NCI-60 one-dose screen, K-562; assay type: cell-based; settings: Homo sapiens, K562; K-562, leukaemia; single dose 10 μM; read-out: Growth inhibition %
Experimental: as §1, §2

CCRF-CEM = assay: NCI-60 one-dose screen, CCRF-CEM; assay type: cell-based; settings: Homo sapiens, leukaemia, single dose 10 μM, read-out: Growth inhibition %
Experimental: as §1, §2

NCI-H226 = assay: NCI-60 one-dose screen, NCI-H226; assay type: cell-based; settings: Homo sapiens; NCI-H226, non-small cell lung cancer; single dose 10 μM; read-out: Growth inhibition %
Experimental: as §1, §2

TK-10 = assay: NCI-60 one-dose screen, TK-10; assay type: cell-based; settings: Homo sapiens; TK-10, renal cancer; single dose 10 μM; read-out: Growth inhibition %
Experimental: as §1, §2

MDA-MB-435 = assay: NCI-60 one-dose screen, MDA-MB-435; assay type: cell-based; settings: Homo sapiens; MDA-MB-435, melanoma; single dose 10 μM; read-out: Growth inhibition %
Experimental: as §1, §2

UACC-62 = assay: NCI-60 one-dose screen, UACC-62; assay type: cell-based; settings: Homo sapiens; UACC-62, melanoma; single dose 10 μM; read-out: Growth inhibition %
Experimental: as §1, §2

SN12C = assay: NCI-60 one-dose screen, SN12C; assay type: cell-based; settings: Homo sapiens, renal cancer, single dose 10 μM, read-out: Growth inhibition %
Experimental: as §1, §2

LOX IMVI = assay: NCI-60 one-dose screen, LOX IMVI; assay type: cell-based; settings: Homo sapiens, melanoma, single dose 10 μM, read-out: Growth inhibition %
Experimental: as §1, §2

UACC-257 = assay: NCI-60 one-dose screen, UACC-257; assay type: cell-based; settings: Homo sapiens; UACC-257, melanoma; single dose 10 μM; read-out: Growth inhibition %
Experimental: as §1, §2

KM12 = assay: NCI-60 one-dose screen, KM12; assay type: cell-based; settings: Homo sapiens; KM12, colon cancer; single dose 10 μM; read-out: Growth inhibition %
Experimental: as §1, §2

IGROV1 = assay: NCI-60 one-dose screen, IGROV1; assay type: cell-based; settings: Homo sapiens, IGROV-1; IGROV1, ovarian cancer; single dose 10 μM; read-out: Growth inhibition %
Experimental: as §1, §2

SR = assay: NCI-60 one-dose screen, SR; assay type: cell-based; settings: Homo sapiens, leukaemia, single dose 10 μM, read-out: Growth inhibition %
Experimental: as §1, §2

SF-295 = assay: NCI-60 one-dose screen, SF-295; assay type: cell-based; settings: Homo sapiens; SF-295, CNS cancer; single dose 10 μM; read-out: Growth inhibition %
Experimental: as §1, §2

NCI/ADR-RES = assay: NCI-60 one-dose screen, NCI/ADR-RES; assay type: cell-based; settings: Homo sapiens, ovarian cancer, single dose 10 μM, read-out: Growth inhibition %
Experimental: as §1, §2

T-47D = assay: NCI-60 one-dose screen, T-47D; assay type: cell-based; settings: Homo sapiens, T47D, breast cancer, single dose 10 μM, read-out: Growth inhibition %
Experimental: as §1, §2

SK-MEL-5 = assay: NCI-60 one-dose screen, SK-MEL-5; assay type: cell-based; settings: Homo sapiens; SK-MEL-5, melanoma; single dose 10 μM; read-out: Growth inhibition %
Experimental: as §1, §2

SNB-19 = assay: NCI-60 one-dose screen, SNB-19; assay type: cell-based; settings: Homo sapiens; SNB-19, CNS cancer; single dose 10 μM; read-out: Growth inhibition %
Experimental: as §1, §2

U251 = assay: NCI-60 one-dose screen, U251; assay type: cell-based; settings: Homo sapiens, U-251; U251, CNS cancer; single dose 10 μM; read-out: Growth inhibition %
Experimental: as §1, §2

CAKI-1 = assay: NCI-60 one-dose screen, CAKI-1; assay type: cell-based; settings: Homo sapiens; CAKI-1, renal cancer; single dose 10 μM; read-out: Growth inhibition %
Experimental: as §1, §2

`Cc1ccc(C(=O)NNC(=O)N2c3ccccc3C=Cc3ccccc32)cc1` [Compound 4d, N′-(4-Methylbenzoyl)-5H-dibenzo[b,f]azepine-5-carbohydrazide] gave an inhibition at 10 µM (HCC-2998) of less than 10%, an inhibition at 10 µM (MDA-MB-468) of less than 10% and an inhibition at 10 µM (OVCAR-4) of less than 10%. It also gave an inhibition at 10 µM (NCI-H522) of less than 10%, an inhibition at 10 µM (A549-ATCC) of less than 10% and an inhibition at 10 µM (K-562) of less than 10%. For the same molecule, the inhibition at 10 µM (CCRF-CEM) was less than 10%, the inhibition at 10 µM (NCI-H226) was less than 10% and the inhibition at 10 µM (TK-10) was 10.3%. The inhibition at 10 µM (MDA-MB-435) was less than 10%, the inhibition at 10 µM (UACC-62) was less than 10% and the inhibition at 10 µM (SN12C) was less than 10%. It also gave an inhibition at 10 µM (LOX IMVI) of less than 10%, an inhibition at 10 µM (UACC-257) of less than 10% and an inhibition at 10 µM (KM12) of less than 10%. For the same molecule, the inhibition at 10 µM (IGROV1) was less than 10%, the inhibition at 10 µM (SR) was less than 10% and the inhibition at 10 µM (SF-295) was less than 10%. For the same molecule, the melting point was 151 to 153 °C, the inhibition at 10 µM (NCI/ADR-RES) was less than 10% and the inhibition at 10 µM (T-47D) was less than 10%. The inhibition at 10 µM (SK-MEL-5) was less than 10%, the inhibition at 10 µM (SNB-19) was less than 10% and the inhibition at 10 µM (U251) was less than 10%. The inhibition at 10 µM (CAKI-1) was less than 10%.
With `O=C(NNC(=O)N1c2ccccc2C=Cc2ccccc21)c1ccc([N+](=O)[O-])cc1` [Compound 4e, N′-(4-Nitrobenzoyl)-5H-dibenzo[b,f]azepine-5-carbohydrazide] the inhibition at 10 µM (HCC-2998) was less than 10%, the inhibition at 10 µM (MDA-MB-468) was less than 10% and the inhibition at 10 µM (OVCAR-4) was less than 10%. For the same molecule, the inhibition at 10 µM (NCI-H522) was less than 10%, the inhibition at 10 µM (A549-ATCC) was less than 10% and the inhibition at 10 µM (K-562) was less than 10%. The inhibition at 10 µM (CCRF-CEM) was less than 10%, the inhibition at 10 µM (NCI-H226) was less than 10% and the inhibition at 10 µM (TK-10) was 10%. It also gave an inhibition at 10 µM (MDA-MB-435) of less than 10%, an inhibition at 10 µM (UACC-62) of less than 10% and an inhibition at 10 µM (SN12C) of less than 10%. For the same molecule, the inhibition at 10 µM (LOX IMVI) was less than 10%, the inhibition at 10 µM (UACC-257) was less than 10% and the inhibition at 10 µM (KM12) was less than 10%. For the same molecule, the inhibition at 10 µM (IGROV1) was less than 10%, the inhibition at 10 µM (SR) was less than 10% and the inhibition at 10 µM (SF-295) was less than 10%. It also gave a melting point of 241 to 243 °C, an inhibition at 10 µM (NCI/ADR-RES) of less than 10% and an inhibition at 10 µM (T-47D) of less than 10%. It also gave an inhibition at 10 µM (SK-MEL-5) of less than 10%, an inhibition at 10 µM (SNB-19) of less than 10% and an inhibition at 10 µM (U251) of less than 10%. For the same molecule, the inhibition at 10 µM (CAKI-1) was less than 10%.
For `O=C(NNC(=O)N1c2ccccc2C=Cc2ccccc21)c1ccc2ccccc2c1` [Compound 4f, N′-(2-Naphthoyl)-5H-dibenzo[b,f]azepine-5-carbohydrazide], the inhibition at 10 µM (HCC-2998) was less than 10%, the inhibition at 10 µM (MDA-MB-468) was 12.3% and the inhibition at 10 µM (OVCAR-4) was less than 10%. The inhibition at 10 µM (NCI-H522) was 14.1%, the inhibition at 10 µM (A549-ATCC) was less than 10% and the inhibition at 10 µM (K-562) was 12.8%. It also gave an inhibition at 10 µM (CCRF-CEM) of less than 10%, an inhibition at 10 µM (NCI-H226) of less than 10% and an inhibition at 10 µM (TK-10) of less than 10%. The inhibition at 10 µM (MDA-MB-435) was less than 10%, the inhibition at 10 µM (UACC-62) was 18.9% and the inhibition at 10 µM (SN12C) was less than 10%. It also gave an inhibition at 10 µM (LOX IMVI) of less than 10%, an inhibition at 10 µM (UACC-257) of less than 10% and an inhibition at 10 µM (KM12) of less than 10%. For the same molecule, the inhibition at 10 µM (IGROV1) was less than 10%, the inhibition at 10 µM (SR) was 12.8% and the inhibition at 10 µM (SF-295) was less than 10%. The melting point was 243 to 245 °C, the inhibition at 10 µM (NCI/ADR-RES) was less than 10% and the inhibition at 10 µM (T-47D) was 12.6%. The inhibition at 10 µM (SK-MEL-5) was less than 10%, the inhibition at 10 µM (SNB-19) was less than 10% and the inhibition at 10 µM (U251) was less than 10%. For the same molecule, the inhibition at 10 µM (CAKI-1) was less than 10%.
With `O=C(Cc1ccccc1)NNC(=O)N1c2ccccc2C=Cc2ccccc21` [Compound 4g, N′-(2-Phenylacetyl)-5H-dibenzo[b,f]azepine-5-carbohydrazide] the inhibition at 10 µM (HCC-2998) was less than 10%, the inhibition at 10 µM (MDA-MB-468) was less than 10% and the inhibition at 10 µM (OVCAR-4) was less than 10%. The inhibition at 10 µM (NCI-H522) was less than 10%, the inhibition at 10 µM (A549-ATCC) was less than 10% and the inhibition at 10 µM (K-562) was less than 10%. The inhibition at 10 µM (CCRF-CEM) was less than 10%, the inhibition at 10 µM (NCI-H226) was less than 10% and the inhibition at 10 µM (TK-10) was less than 10%. For the same molecule, the inhibition at 10 µM (MDA-MB-435) was less than 10%, the inhibition at 10 µM (UACC-62) was less than 10% and the inhibition at 10 µM (SN12C) was less than 10%. It also gave an inhibition at 10 µM (LOX IMVI) of less than 10%, an inhibition at 10 µM (UACC-257) of less than 10% and an inhibition at 10 µM (KM12) of less than 10%. The inhibition at 10 µM (IGROV1) was less than 10%, the inhibition at 10 µM (SR) was less than 10% and the inhibition at 10 µM (SF-295) was less than 10%. It also gave a melting point of 134 to 136 °C, an inhibition at 10 µM (NCI/ADR-RES) of less than 10% and an inhibition at 10 µM (T-47D) of less than 10%. For the same molecule, the inhibition at 10 µM (SK-MEL-5) was less than 10%, the inhibition at 10 µM (SNB-19) was less than 10% and the inhibition at 10 µM (U251) was less than 10%. For the same molecule, the inhibition at 10 µM (CAKI-1) was less than 10%.
